# Data reported in patent US20110028455A1, “Indole-substituted 3-cyanopyridines As Kinase Inhibitors” (Wyeth LLC, priority 2007, published 2011).
# Target: T1, human PKCθ full length enzyme (Homo sapiens, UniProt Q04759)
# T1 construct: human PKCθ full length enzyme (Panvera Cat# P2996); purchased Panvera P2996
# Assay: PKCθ IMAP Assay
# Type: biochemical
# Conditions: PKCθ 1 nM; ATP 6 μM; peptide 100 nM; DMSO 5%; 25 minutes at room temperature; FP readout; read-out: PKC-Theta Mean IC50
# Experimental: The materials used include the following: human PKCθ full length enzyme (Panvera Cat# P2996); substrate peptide: 5FAM-RFARKGSLRQKNV-OH (Molecular Devices, RP7032); ATP (Sigma Cat # A2383); DTT (Pierce, 20291); 5× kinase reaction buffer (Molecular Devices, R7209); 5× binding buffer A (Molecular Devices, R7282), 5× binding buffer B (Molecular Devices, R7209); IMAP Beads (Molecular Devices, R7284); and 384-well plates (Corning Costar, 3710).
# The reaction buffer was prepared by diluting the 5× stock reaction buffer and adding DTT to obtain a concentration of 3.0 mM. The binding buffer was prepared by diluting the 5× binding buffer A. A master mix solution was prepared using a 90% dilution of the reaction buffer containing 2×ATP (12 uM) and 2× peptide (200 nm). Compounds were diluted in DMSO to 20× of the maximum concentration for the IC50 measurement. 27 μl of the master mix solution for each IC50 curve was added to the first column in a 384-well plate and 3 μl of 20× compound in DMSO was added to each well.
# The final concentration of compound was 2× and 10% DMSO. DMSO was added to the rest of the master mix to increase the concentration to 10%. 10 μl of the master mix containing 10% DMSO was added to the rest of the wells on the plate except the 2nd column. 20 μl was transferred from the first column to the 2nd column. The compounds were serially diluted in 2:1 ratio starting from the 2nd column. A 2×(2 nM) PKCθ solution was made in the reaction buffer. 10 μl of the PKCθ solution was added to every well to achieve these final concentrations: PKCθ-1 nM; ATP-6 μM; peptide-100 nM; DMSO-5%. Samples were incubated for 25 minutes at room temperature. The binding reagent was prepared by diluting the beads in 1× binding buffer to 800:1. 50 μl of the binding reagent was added to every well and incubated for 20 minutes. FP was measured using Envision2100 (PerkinElmer Life Sciences). Wells with no ATP and wells with no enzyme were used as controls.
# T1 sequence (Q04759 whole entry): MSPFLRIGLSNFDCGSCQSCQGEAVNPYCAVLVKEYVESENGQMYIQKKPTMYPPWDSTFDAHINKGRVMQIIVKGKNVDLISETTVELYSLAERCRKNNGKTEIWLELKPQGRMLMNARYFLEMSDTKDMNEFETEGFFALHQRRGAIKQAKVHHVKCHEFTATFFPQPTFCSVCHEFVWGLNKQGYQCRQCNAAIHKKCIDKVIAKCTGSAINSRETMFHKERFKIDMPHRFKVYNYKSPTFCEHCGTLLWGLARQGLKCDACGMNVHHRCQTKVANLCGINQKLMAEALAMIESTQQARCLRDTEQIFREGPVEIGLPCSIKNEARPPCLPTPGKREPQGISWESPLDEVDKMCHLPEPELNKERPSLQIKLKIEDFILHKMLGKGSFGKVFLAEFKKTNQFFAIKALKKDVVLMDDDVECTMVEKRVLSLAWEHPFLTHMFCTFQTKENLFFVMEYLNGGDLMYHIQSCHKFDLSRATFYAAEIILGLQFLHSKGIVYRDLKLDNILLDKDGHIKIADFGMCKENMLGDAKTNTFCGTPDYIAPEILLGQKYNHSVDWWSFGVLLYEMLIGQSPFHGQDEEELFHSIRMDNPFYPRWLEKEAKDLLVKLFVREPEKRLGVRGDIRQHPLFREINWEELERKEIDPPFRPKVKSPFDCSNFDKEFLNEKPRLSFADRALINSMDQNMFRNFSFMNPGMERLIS
row,SMILES,IC50 [µM]
1,"Cc1ncc(C#N)c(Nc2ccc3[nH]ccc3c2C)c1-c1ccc(OCCNCCO)cc1 [Example 17, 5-(4-{2-[(2-hydroxyethyl)amino]ethoxy}phenyl)-6-methyl-4-[(4-methyl-1H-indol-5-yl)amino]nicotinonitrile]",0.019
2,"Cc1ncc(C#N)c(Nc2ccc3[nH]ccc3c2C)c1-c1ccc(OCCNCCCO)cc1 [Example 18, 5-(4-{2-[(3-hydroxypropyl)amino]ethoxy}phenyl)-6-methyl-4-[(4-methyl-1H-indol-5-yl)amino]nicotinonitrile]",0.04
3,"Cc1ncc(C#N)c(Nc2ccc3[nH]ccc3c2C)c1-c1ccc(OCCNCCN2CCCC2)cc1 [Example 21, 6-methyl-4-[(4-methyl-1H-indol-5-yl)amino]-5-(4-{2-[(2-pyrrolidin-1-ylethyl)amino]ethoxy}phenyl)nicotinonitrile]",0.026
4,"Cc1ncc(C#N)c(Nc2ccc3[nH]ccc3c2C)c1-c1ccc(OCCN2CCCCC2)cc1 [Example 24, 6-methyl-4-[(4-methyl-1H-indol-5-yl)amino]-5-[4-(2-piperidin-1-ylethoxy)phenyl]nicotinonitrile]",0.044
5,"Cc1ncc(C#N)c(Nc2ccc3[nH]ccc3c2C)c1-c1ccc(OCCN2CCC(CCO)CC2)cc1 [Example 25, 5-(4-{2-[4-(2-hydroxyethyl)piperidin-1-yl]ethoxy}phenyl)-6-methyl-4-[(4-methyl-1H-indol-5-yl)amino]nicotinonitrile]",0.068
6,"Cc1ncc(C#N)c(Nc2ccc3[nH]ccc3c2C)c1-c1ccc(OCCN2CCC(N3CCCC3)CC2)cc1 [Example 26, 6-methyl-4-[(4-methyl-1H-indol-5-yl)amino]-5-{4-[2-(4-pyrrolidin-1-ylpiperidin-1-yl)ethoxy]phenyl}nicotinonitrile]",0.031
7,"Cc1ncc(C#N)c(Nc2ccc3[nH]ccc3c2C)c1-c1ccc(OCCN2CCC(N3CCCCC3)CC2)cc1 [Example 27, 5-{4-[2-(1,4′-bipiperidin-1′-yl)ethoxy]phenyl}-6-methyl-4-[(4-methyl-1H-indol-5-yl)amino]nicotinonitrile]",0.03
8,"Cc1ncc(C#N)c(Nc2ccc3[nH]ccc3c2C)c1-c1ccc(OCCN2CCC(N3CCOCC3)CC2)cc1 [Example 28, 6-methyl-4-[(4-methyl-1H-indol-5-yl)amino]-5-{4-[2-(4-morpholin-4-ylpiperidin-1-yl)ethoxy]phenyl}nicotinonitrile]",0.028
9,"Cc1ncc(C#N)c(Nc2ccc3[nH]ccc3c2C)c1-c1ccc(OCCN2CC(C)NCC2C)cc1 (centres unmarked) [Example 31, 5-{4-[2-(2,5-dimethylpiperazin-1-yl)ethoxy]phenyl}-6-methyl-4-[(4-methyl-1H-indol-5-yl)amino]nicotinonitrile]",0.042
10,"Cc1ncc(C#N)c(Nc2ccc3[nH]ccc3c2C)c1-c1ccc(OCCN2CC(C)NC(C)C2)cc1 (centres unmarked) [Example 32, 5-{4-[2-(3,5-dimethylpiperazin-1-yl)ethoxy]phenyl}-6-methyl-4-[(4-methyl-1H-indol-5-yl)amino]nicotinonitrile]",0.025
11,"Cc1ncc(C#N)c(Nc2ccc3[nH]ccc3c2C)c1-c1ccc(OCCN2CCCNCC2)cc1 [Example 34, 5-{4-[2-(1,4-diazepan-1-yl)ethoxy]phenyl}-6-methyl-4-[(4-methyl-1H-indol-5-yl)amino]nicotinonitrile]",0.014
12,"Cc1ncc(C#N)c(Nc2ccc3[nH]ccc3c2C)c1-c1ccc(OCCNCc2cccnc2)cc1 [Example 41, 6-methyl-4-[(4-methyl-1H-indol-5-yl)amino]-5-(4-{2-[(pyridin-3-ylmethyl)amino]ethoxy}phenyl)nicotinonitrile]",0.064
13,"Cc1ncc(C#N)c(Nc2ccc3[nH]ccc3c2C)c1-c1ccc(OCCNCc2ccncc2)cc1 [Example 42, 6-methyl-4-[(4-methyl-1H-indol-5-yl)amino]-5-(4-{2-[(pyridin-4-ylmethyl)amino]ethoxy}phenyl)nicotinonitrile]",0.041
14,"COc1ccc(-c2c(C)ncc(C#N)c2Nc2ccc3cc[nH]c3c2)cc1OC [Example 46, 5-(3,4-dimethoxyphenyl)-4-(1H-indol-6-ylamino)-6-methylnicotinonitrile]",11.9
